Entries after “also recorded” stand apart in the source; their conditions may differ. Structures can show the parent of a compound that is named as a salt.
How the values were obtained:
[1] = Dynamic vapor sorption (DVS) scan, with XRPD after the cycle; type: physicochemical; conditions: for crystalline form after DVS cycle: XRPD after the DVS cycle; for DVS: deliquescent above / DVS: hygroscopicity / DVS: adsorbs (moisture) / DVS: adsorption transition at: dynamic vapor sorption; for moisture adsorbed: between about 40 and about 80% RH, calculated from DVS
Excerpt: FIG. 4 depicts a dynamic vapor sorption (DVS) scan for crystalline Form I of the invention (VTI dynamic vapor desorption analyzer).
FIG. 8 depicts a dynamic vapor sorption (DVS) scan for crystalline Form II of the invention (VTI dynamic vapor desorption analyzer).
FIG. 12 depicts a dynamic vapor sorption (DVS) scan for crystalline Form III of the invention.
The various crystalline forms of (R)-8-chloro-1-methyl-2,3,4,5-tetrahydro-1H-3-benzazepine hydrochloride can be identified by their unique solid state signatures with respect to, for example, differential scanning calorimetry (DSC), X-ray powder diffraction (XRPD), and other solid state methods. Further characterization with respect to water or solvent content of the crystalline forms can be gauged by any of various routine methods such as thermogravimetric analysis (TGA), dynamic vapor sorption (DVS), DSC and other techniques. For DSC, it is known that the temperatures observed will depend upon the rate of temperature change as well as sample preparation technique and the particular instrument employed. Thus, the values reported herein relating to DSC thermograms can vary by plus or minus about 4° C. For XRPD, the relative intensities of the peaks can vary, depending upon the sample preparation technique, the sample mounting procedure and the particular instrument employed. Moreover, instrument variation and other factors can often affect the 2-theta values. Therefore, the peak assignments of diffraction patterns can vary by plus or minus about 0.2°.
XRPD carried out on both Forms I and II after the DVS cycle confirmed this conversion.

[2] = Heat stability of crystalline form, XRPD analysis after heating; type: physicochemical
Description: A sample of Form I was heated to 160° C. in a TGA furnace for about 15 min when heated at a rate of about 10° C./min.
A sample of Form III was heated to 60° C. for at least 2 hours.
A sample of Form III was heated to 60° C. for one day.
A sample of Form III was heated to 80° C. for 30 minutes.
A sample of Form III was heated to 80° C. for 1 day.

SMILES | crystalline form after DVS cycle ([1]; hydrochloride Hemihydrate) | DVS: adsorption at 90% RH ([1]; at 90% RH) | water adsorbed ([1]; at 90% RH) | DVS: deliquescent above ([1]; hydrochloride Hemihydrate) | DVS: hygroscopicity ([1]; hydrochloride Hemihydrate) | crystal form after heating (XRPD) ([2]; heated to 60° C. for at least 2 hours) | crystal form after heating (XRPD) ([2]; heated to 60° C. for one day) | crystal form after heating (XRPD) ([2]; heated to 80° C. for 30 minutes) | crystal form after heating (XRPD) ([2]; heated to 80° C. for 1 day) | crystalline form after DVS cycle ([1]; hydrochloride) | moisture adsorbed [1] | DVS: adsorbs (moisture) [1] | DVS: adsorption transition at ([1]; hydrochloride) | DVS: deliquescent above ([1]; hydrochloride) | DVS: hygroscopicity ([1]; hydrochloride) | conversion upon exposure to moisture [1] | crystal form after heating (XRPD) ([2]; heated to 160° C. in a TGA furnace for about 15 min, about 10° C./min)
C[C@H]1CNCCc2ccc(Cl)cc21 [Form III, (R)-8-chloro-1-methyl-2,3,4,5-tetrahydro-1H-3-benzazepine hydrochloride Hemihydrate] | no change in crystalline form | adsorption of less than 0.5% | less than 0.5 wt % | deliquescent above 95% RH; | substantially non-hygroscopic | substantially no change in crystal form | partial conversion to Form I | partial conversion to Form I | partial conversion to Form I |  |  |  |  |  |  |  | 
C[C@H]1CNCCc2ccc(Cl)cc21 [Form I, (R)-8-chloro-1-methyl-2,3,4,5-tetrahydro-1H-3-benzazepine hydrochloride] |  |  |  |  |  |  |  |  |  | conversion to the hemihydrate (Form III); also recorded: crystalline form changes | about 3.8 wt % | adsorbs about 3.8 wt %; | about 60% RH; | deliquescent above 90% RH | hygroscopic; also recorded: hygroscopic; | readily convert to Form III | no change in crystal form
C[C@H]1CNCCc2ccc(Cl)cc21 [Form II, (R)-8-chloro-1-methyl-2,3,4,5-tetrahydro-1H-3-benzazepine hydrochloride] |  |  |  |  |  |  |  |  |  | conversion to the hemihydrate (Form III); also recorded: crystalline form changes | about 3.8 wt % | adsorbs about 3.8 wt %; | about 40% RH; | deliquescent above 90% RH | hygroscopic; also recorded: hygroscopic; | readily convert to Form III | 

Reference: patent US8980881B2, “Crystalline forms of (R)-8-chloro-1-methyl-2,3,4,5-tetrahydro-1H-3-benzazepine hydrochloride” (priority 2004, dated 2015)
